Reference: patent US20250145601A1, “NOVEL BICYCLIC COMPOUNDS AS RAD51 INHIBITORS” (SATYA THERAPEUTICS, INC., priority 2022, published 2025)

Test system: MDA MB 231 cells
Test: Antiproliferation assay in MDA MB 231 cells (Cell Titer Glo)
Format: cell-based
Conditions: Homo sapiens, MDA-MB-231, 216 h, MDAMB231 cell line, 9 day treatment
Procedure, shortened: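 Treated for 9 days in total with rising doses, MDA MB 231 cells (250/well, 37° C, 5% CO2) got fresh compound on day 5. Viability by Cell Titer Glo luminescence (ATP), with cell-free wells subtracted as blank.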

| SMILES | inhibition at 10 µM (separated enantiomers A/B (Table 3)) [%] | inhibition at 10 µM (racemic compounds (Table 2)) [%] |
| --- | --- | --- |
| CCC(=O)N1N=C(c2c(C)c3ccsc3[nH]c2=O)CC1c1ccc(C)cc1 (single isomer, unassigned) [Example 37B] | ≥ 50 |  |
| CCC(=O)N1N=C(c2c(C)c3ncccc3[nH]c2=O)CC1c1ccc(C)cc1 (stereo not shown) [Example 69, 4-methyl-3-(1-propionyl-5-(p-tolyl)-4,5-dihydro-1H-pyrazol-3-yl)-1,5-naphthyridin-2(1H)-one] |  | ≥ 50 |
| CCC(=O)N1N=C(c2c(C)c3cccnc3[nH]c2=O)CC1c1ccc(C)cc1 (stereo not shown) [Example 73, 4-methyl-3-(1-propionyl-5-(p-tolyl)-4,5-dihydro-1H-pyrazol-3-yl)-1,8-naphthyridin-2(1H)-one] |  | ≥ 50 |
| Cc1ccc(C2CC(c3c(C)c4ccsc4[nH]c3=O)=NN2C(=O)C(F)(F)F)cc1 (stereo not shown) [Example 64, 4-methyl-5-(5-(p-tolyl)-1-(2,2,2-trifluoroacetyl)-4,5-dihydro-1H-pyrazol-3-yl)-7,7a-dihydrothieno[2,3-b]pyridin-6(7H)-one] |  | ≥ 50 |
